Source: PubChem BioAssay (NCI)
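Five compound concentrations were applied to cells in 96-well plates for 48 hours; endpoints were derived by simple linear interpolation of the resulting dose-response curve. The concentration for full growth arrest is given as TGI.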

Tests used:
Assay in all cases: NCI anticancer screen, dose series, 48 h
SK-MEL-5 melanoma = system: SK-MEL-5 melanoma
A498 renal = system: A498 renal
HOP-62 NSCLC = system: HOP-62 NSCLC
OVCAR-3 ovarian = system: OVCAR-3 ovarian
TK-10 renal = system: TK-10 renal
OVCAR-4 ovarian = system: OVCAR-4 ovarian
K-562 leukemia = system: K-562 leukemia
MOLT-4 leukemia = system: MOLT-4 leukemia
RXF 393 renal = system: RXF 393 renal
SF-295 CNS = system: SF-295 CNS
HS 578T breast = system: HS 578T breast
NCI-H226 lung = system: NCI-H226 lung
OVCAR-8 ovarian = system: OVCAR-8 ovarian
UACC-257 melanoma = system: UACC-257 melanoma
HT29 colon = system: HT29 colon
NCI/ADR-RES ovarian = system: NCI/ADR-RES ovarian
DU-145 prostate = system: DU-145 prostate
UACC-62 melanoma = system: UACC-62 melanoma
SNB-19 CNS = system: SNB-19 CNS
HCT-15 colon = system: HCT-15 colon
NCI-H522 lung = system: NCI-H522 lung
ACHN renal = system: ACHN renal
NCI-H23 lung = system: NCI-H23 lung
T-47D breast = system: T-47D breast
U251 CNS = system: U251 CNS
UO-31 renal = system: UO-31 renal
HCT-116 colon = system: HCT-116 colon
SF-268 CNS = system: SF-268 CNS
MDA-N = system: MDA-N
BT-549 breast = system: BT-549 breast
MDA-MB-231 breast = system: MDA-MB-231 breast
HOP-92 NSCLC = system: HOP-92 NSCLC
KM12 colon = system: KM12 colon
M14 melanoma = system: M14 melanoma
SW-620 colon = system: SW-620 colon
A549 NSCLC = system: A549 NSCLC
MALME-3M melanoma = system: MALME-3M melanoma
MDA-MB-435 = system: MDA-MB-435
IGROV1 ovarian = system: IGROV1 ovarian
RPMI-8226 leukemia = system: RPMI-8226 leukemia
786-0 renal = system: 786-0 renal
SK-MEL-2 melanoma = system: SK-MEL-2 melanoma
SK-OV-3 ovarian = system: SK-OV-3 ovarian
CCRF-CEM leukemia = system: CCRF-CEM leukemia
SF-539 CNS = system: SF-539 CNS
HL-60(TB) leukemia = system: HL-60(TB) leukemia
SNB-75 CNS = system: SNB-75 CNS
CAKI-1 renal = system: CAKI-1 renal
SN12C renal = system: SN12C renal
MCF7 breast = system: MCF7 breast
EKVX NSCLC = system: EKVX NSCLC
LOX IMVI melanoma = system: LOX IMVI melanoma
COLO 205 colon = system: COLO 205 colon
OVCAR-5 ovarian = system: OVCAR-5 ovarian
PC-3 prostate = system: PC-3 prostate
SK-MEL-28 melanoma = system: SK-MEL-28 melanoma
NCI-H460 lung = system: NCI-H460 lung

C=C(C)[C@H]1C2=CC(C(=O)OC)=C(C[C@H](C(=C)C)[C@@H](O)[C@@H](O)C3=C[C@H]1OC3=O)O2
TGI (SK-MEL-5 melanoma): > 100 µM
TGI (A498 renal): > 100 µM
TGI (HOP-62 NSCLC): > 100 µM
TGI (OVCAR-3 ovarian): > 100 µM
TGI (TK-10 renal): > 100 µM
TGI (OVCAR-4 ovarian): > 100 µM
TGI (K-562 leukemia): > 100 µM
TGI (MOLT-4 leukemia): > 100 µM
TGI (RXF 393 renal): > 100 µM
TGI (SF-295 CNS): > 100 µM
TGI (HS 578T breast): > 100 µM
TGI (NCI-H226 lung): > 100 µM
TGI (OVCAR-8 ovarian): > 100 µM
TGI (UACC-257 melanoma): > 100 µM
TGI (HT29 colon): > 100 µM
TGI (NCI/ADR-RES ovarian): > 100 µM
TGI (DU-145 prostate): > 100 µM
TGI (UACC-62 melanoma): > 100 µM
TGI (SNB-19 CNS): > 100 µM
TGI (HCT-15 colon): > 100 µM
TGI (NCI-H522 lung): > 100 µM
TGI (ACHN renal): > 100 µM
TGI (NCI-H23 lung): > 100 µM
TGI (T-47D breast): > 100 µM
TGI (U251 CNS): > 100 µM
TGI (UO-31 renal): 85.6 µM
TGI (HCT-116 colon): > 100 µM
TGI (SF-268 CNS): > 100 µM
TGI (MDA-N): > 100 µM
TGI (BT-549 breast): > 100 µM
TGI (MDA-MB-231 breast): > 100 µM
TGI (HOP-92 NSCLC): > 100 µM
TGI (KM12 colon): > 100 µM
TGI (M14 melanoma): > 100 µM
TGI (SW-620 colon): > 100 µM
TGI (A549 NSCLC): > 100 µM
TGI (MALME-3M melanoma): > 100 µM
TGI (MDA-MB-435): > 100 µM
TGI (IGROV1 ovarian): > 100 µM
TGI (RPMI-8226 leukemia): > 100 µM
TGI (786-0 renal): > 100 µM
TGI (SK-MEL-2 melanoma): > 100 µM
TGI (SK-OV-3 ovarian): > 100 µM
TGI (CCRF-CEM leukemia): > 100 µM
TGI (SF-539 CNS): > 100 µM
TGI (HL-60(TB) leukemia): > 100 µM
TGI (SNB-75 CNS): > 100 µM
TGI (CAKI-1 renal): > 100 µM
TGI (SN12C renal): > 100 µM
TGI (MCF7 breast): > 100 µM
TGI (EKVX NSCLC): > 100 µM
TGI (LOX IMVI melanoma): > 100 µM
TGI (COLO 205 colon): > 100 µM
TGI (OVCAR-5 ovarian): > 100 µM

O=[N+]([O-])c1cccnc1N=Nc1c(O)[nH]c2ccccc12
TGI (A498 renal): > 100 µM
TGI (HOP-62 NSCLC): 60.7 µM
TGI (OVCAR-3 ovarian): > 100 µM
TGI (TK-10 renal): 40.8 µM
TGI (OVCAR-4 ovarian): 73 µM
TGI (K-562 leukemia): > 100 µM
TGI (MOLT-4 leukemia): > 100 µM
TGI (SF-295 CNS): 38.7 µM
TGI (HS 578T breast): > 100 µM
TGI (NCI-H226 lung): > 100 µM
TGI (OVCAR-8 ovarian): > 100 µM
TGI (UACC-257 melanoma): 44.6 µM
TGI (HT29 colon): 26 µM
TGI (NCI/ADR-RES ovarian): > 100 µM
TGI (DU-145 prostate): 29.6 µM
TGI (UACC-62 melanoma): 23 µM
TGI (SNB-19 CNS): 58.5 µM
TGI (HCT-15 colon): 16.5 µM
TGI (NCI-H522 lung): 69.3 µM
TGI (ACHN renal): 36 µM
TGI (U251 CNS): > 100 µM
TGI (UO-31 renal): 81.2 µM
TGI (HCT-116 colon): 40 µM
TGI (SF-268 CNS): > 100 µM
TGI (MDA-N): > 100 µM
TGI (BT-549 breast): 25.4 µM
TGI (MDA-MB-231 breast): > 100 µM
TGI (HOP-92 NSCLC): > 100 µM
TGI (KM12 colon): 25.6 µM
TGI (M14 melanoma): 58.1 µM
TGI (SW-620 colon): 87.8 µM
TGI (A549 NSCLC): 47.7 µM
TGI (MALME-3M melanoma): 56.3 µM
TGI (MDA-MB-435): > 100 µM
TGI (IGROV1 ovarian): 53.9 µM
TGI (RPMI-8226 leukemia): 79.2 µM
TGI (786-0 renal): 52 µM
TGI (SK-MEL-2 melanoma): 53.4 µM
TGI (PC-3 prostate): 63 µM
TGI (SK-OV-3 ovarian): 69.5 µM
TGI (SF-539 CNS): 12.7 µM
TGI (SNB-75 CNS): 44.3 µM
TGI (SN12C renal): 86.5 µM
TGI (MCF7 breast): 20.6 µM
TGI (EKVX NSCLC): 66 µM
TGI (LOX IMVI melanoma): 25.7 µM
TGI (SK-MEL-28 melanoma): 74.4 µM
TGI (OVCAR-5 ovarian): 49.2 µM
TGI (NCI-H460 lung): 35.9 µM
